Results published in patent EP0255343A2, “L-aspartylfenchylamino alcohol derivatives” (priority 1986, dated 1988).
Residues, ends and D or L forms follow the SMILES beside them.

Assays:
[1] = Sweetness threshold values determined by a limit method by a panel of 5 skilled flavorists; assay type: in vivo; conditions: for Taste intensity Threshold Values (%): dissolved in water, limit method, panel of 5 skilled flavorists; for Degree of Sweetness (time): relative to sucrose = 1
[2] = at 80°C and at a pH of 4; cited from earlier work

Compound: 3-N-(L-aspartyl)amino-1-fenchyl-2-butanol [Compound A]
- Taste intensity Threshold Values (%) [1]: 0.001%
- Degree of Sweetness (time) [1]: 600 time

Compound: 3-N-(L-aspartyl)amino-4-fenchyl-2-butanol [Compound B]
- Taste intensity Threshold Values (%) [1]: 0.0012%
- Degree of Sweetness (time) [1]: 500 time

Compound: COC(=O)C(NC(=O)[C@@H](N)CC(=O)O)C(=O)OC1C2(C)CCC(C2)C1(C)C (mixture of isomers) [L-aspartyl-DL-aminomalonic acid methyl fenchyl diester]
- stability [2]: lower than APM

Compound: COC(=O)[C@H](Cc1ccccc1)NC(=O)[C@@H](N)CC(=O)O [APM, L-aspartyl-L-phenylalanine methyl ester] (H-Asp-Phe-OMe)
- Taste intensity Threshold Values (%) [1]: 0.004%
- Degree of Sweetness (time) [1]: 150 time

Compound: OC[C@H]1O[C@@](CO)(O[C@H]2O[C@H](CO)[C@@H](O)[C@H](O)[C@H]2O)[C@@H](O)[C@@H]1O [Sucrose, sucrose]
- Taste intensity Threshold Values (%) [1]: 0.6%
